Source: ChEMBL document CHEMBL4602719, “Discovery of Potent, Selective, and Orally Bioavailable Inhibitors of USP7 with In Vivo Antitumor Activity” (J Med Chem, 2020)
Active and inactive are the calls of the source. The calls are words filed in the database; no cut-off is given here.

Columns and labels:
[1] = molecular target: T1, Ubiquitin carboxyl-terminal hydrolase 1 (Homo sapiens, UniProt O94782); test: Inhibition of His6-tagged human USP1 expressed in insect Sf21 cells coexpressing untagged UAF1 assessed as cleavage of Ubiquitin-Rhodamine110-glycine to Ubiquitin and Rhodamine110-glycine using Ubiquitin-Rhodamine110-glycine as substrate by fluorescence based analysis
T1 sequence (O94782 whole entry): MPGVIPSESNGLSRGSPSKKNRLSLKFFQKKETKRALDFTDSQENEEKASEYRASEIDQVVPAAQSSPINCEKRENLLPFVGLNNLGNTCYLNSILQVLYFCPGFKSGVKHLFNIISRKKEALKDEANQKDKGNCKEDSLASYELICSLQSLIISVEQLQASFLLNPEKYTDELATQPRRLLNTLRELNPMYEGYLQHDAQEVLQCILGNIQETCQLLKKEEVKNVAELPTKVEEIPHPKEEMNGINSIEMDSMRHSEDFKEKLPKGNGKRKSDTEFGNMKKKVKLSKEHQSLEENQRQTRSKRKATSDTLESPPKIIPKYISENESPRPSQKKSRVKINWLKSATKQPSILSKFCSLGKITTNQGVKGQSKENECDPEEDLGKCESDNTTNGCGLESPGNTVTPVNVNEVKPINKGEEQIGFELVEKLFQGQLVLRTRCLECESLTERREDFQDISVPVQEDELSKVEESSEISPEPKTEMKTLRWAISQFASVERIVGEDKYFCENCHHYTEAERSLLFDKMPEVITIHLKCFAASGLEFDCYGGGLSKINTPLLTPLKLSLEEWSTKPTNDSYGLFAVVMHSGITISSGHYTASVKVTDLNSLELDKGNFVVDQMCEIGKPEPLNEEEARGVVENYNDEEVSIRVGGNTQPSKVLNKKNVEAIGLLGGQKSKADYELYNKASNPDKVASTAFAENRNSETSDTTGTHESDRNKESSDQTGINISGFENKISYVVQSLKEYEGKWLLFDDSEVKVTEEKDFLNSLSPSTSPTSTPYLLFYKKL

[2] = molecular target: T2, Ubiquitin carboxyl-terminal hydrolase 47 (Homo sapiens, UniProt Q96K76); test: Inhibition of USP47 (unknown origin) by biochemical assay
T2 sequence (Q96K76 whole entry): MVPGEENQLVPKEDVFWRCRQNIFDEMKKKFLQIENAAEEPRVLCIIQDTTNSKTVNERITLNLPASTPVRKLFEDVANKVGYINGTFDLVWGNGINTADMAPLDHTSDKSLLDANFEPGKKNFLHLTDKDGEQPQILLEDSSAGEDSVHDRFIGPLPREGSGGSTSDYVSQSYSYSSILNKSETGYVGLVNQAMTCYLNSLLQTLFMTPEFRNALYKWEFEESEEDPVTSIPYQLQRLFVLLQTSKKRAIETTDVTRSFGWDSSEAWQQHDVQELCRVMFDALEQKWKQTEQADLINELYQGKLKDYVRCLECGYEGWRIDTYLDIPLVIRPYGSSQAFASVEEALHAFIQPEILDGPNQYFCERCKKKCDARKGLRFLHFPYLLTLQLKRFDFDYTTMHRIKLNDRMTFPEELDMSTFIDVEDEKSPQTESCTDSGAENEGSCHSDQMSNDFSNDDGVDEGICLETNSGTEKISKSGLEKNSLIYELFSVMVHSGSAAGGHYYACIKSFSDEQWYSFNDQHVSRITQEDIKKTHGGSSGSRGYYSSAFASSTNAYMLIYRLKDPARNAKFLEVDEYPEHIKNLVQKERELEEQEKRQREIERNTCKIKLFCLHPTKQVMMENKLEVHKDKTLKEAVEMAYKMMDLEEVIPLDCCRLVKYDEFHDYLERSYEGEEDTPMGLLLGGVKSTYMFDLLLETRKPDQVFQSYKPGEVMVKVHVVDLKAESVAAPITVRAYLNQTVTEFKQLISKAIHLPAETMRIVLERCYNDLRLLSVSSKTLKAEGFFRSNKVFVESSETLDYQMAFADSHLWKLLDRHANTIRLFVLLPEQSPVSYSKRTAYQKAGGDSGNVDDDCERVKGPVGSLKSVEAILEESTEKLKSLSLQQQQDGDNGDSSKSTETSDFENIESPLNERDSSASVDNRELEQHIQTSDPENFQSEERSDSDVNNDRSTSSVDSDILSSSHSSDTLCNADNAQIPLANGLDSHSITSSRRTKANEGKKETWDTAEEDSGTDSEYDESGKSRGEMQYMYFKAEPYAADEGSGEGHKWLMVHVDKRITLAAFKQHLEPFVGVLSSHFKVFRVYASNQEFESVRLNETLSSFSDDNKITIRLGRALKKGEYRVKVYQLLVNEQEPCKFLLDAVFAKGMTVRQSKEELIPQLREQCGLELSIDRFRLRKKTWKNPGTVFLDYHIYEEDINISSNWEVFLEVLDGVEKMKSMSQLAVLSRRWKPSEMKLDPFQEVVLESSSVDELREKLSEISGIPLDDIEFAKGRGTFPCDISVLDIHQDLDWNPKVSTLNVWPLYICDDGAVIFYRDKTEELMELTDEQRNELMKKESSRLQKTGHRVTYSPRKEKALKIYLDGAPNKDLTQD

[3] = molecular target: T3, Ubiquitin carboxyl-terminal hydrolase 7 (Homo sapiens, UniProt Q93009); test: Inhibition of recombinant full length USP7 (unknown origin) using ubiquintin-rhodamine as substrate preincubated for 30 mins followed by substrate addition measured after 1 hr by fluorescence-based Envision plate reader assay
T3 sequence (Q93009 whole entry): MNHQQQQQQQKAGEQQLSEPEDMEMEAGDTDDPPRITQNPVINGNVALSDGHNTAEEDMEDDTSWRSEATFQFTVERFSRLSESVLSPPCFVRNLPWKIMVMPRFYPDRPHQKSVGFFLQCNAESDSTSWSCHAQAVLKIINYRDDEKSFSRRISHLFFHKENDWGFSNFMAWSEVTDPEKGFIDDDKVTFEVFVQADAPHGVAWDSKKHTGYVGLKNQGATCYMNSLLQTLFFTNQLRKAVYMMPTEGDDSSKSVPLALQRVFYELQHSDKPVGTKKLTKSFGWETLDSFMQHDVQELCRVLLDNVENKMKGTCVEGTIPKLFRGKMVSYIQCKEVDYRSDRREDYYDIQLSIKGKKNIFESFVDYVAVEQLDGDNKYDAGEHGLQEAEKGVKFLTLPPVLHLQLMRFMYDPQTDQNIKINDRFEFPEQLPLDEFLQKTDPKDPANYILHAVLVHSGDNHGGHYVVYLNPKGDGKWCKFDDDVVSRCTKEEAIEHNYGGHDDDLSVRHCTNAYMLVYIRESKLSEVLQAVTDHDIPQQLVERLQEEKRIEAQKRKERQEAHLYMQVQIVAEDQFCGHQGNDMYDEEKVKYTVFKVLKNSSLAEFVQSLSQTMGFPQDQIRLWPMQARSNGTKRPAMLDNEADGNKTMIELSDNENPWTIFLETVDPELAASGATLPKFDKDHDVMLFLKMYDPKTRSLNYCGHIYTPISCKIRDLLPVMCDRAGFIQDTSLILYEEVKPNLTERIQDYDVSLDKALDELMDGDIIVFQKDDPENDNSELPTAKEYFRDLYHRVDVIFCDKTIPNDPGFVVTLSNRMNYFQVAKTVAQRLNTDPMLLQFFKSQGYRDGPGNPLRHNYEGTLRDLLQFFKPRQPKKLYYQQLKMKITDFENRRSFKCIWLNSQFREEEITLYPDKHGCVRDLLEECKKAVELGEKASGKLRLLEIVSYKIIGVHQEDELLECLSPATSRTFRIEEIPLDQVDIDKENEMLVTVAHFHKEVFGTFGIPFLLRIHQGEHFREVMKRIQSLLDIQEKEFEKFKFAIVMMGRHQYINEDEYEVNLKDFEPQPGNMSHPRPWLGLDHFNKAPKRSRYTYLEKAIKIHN

[4] = molecular target: T4, Ubiquitin carboxyl-terminal hydrolase isozyme L3 (Homo sapiens, UniProt P15374); test: Inhibition of human GST-tagged UCHL3 expressed in Escherichia coli assessed as cleavage of Ubiquitin-Rhodamine110-glycine to Ubiquitin and Rhodamine110-glycine using Ubiquitin-Rhodamine110-glycine as substrate by fluorescence based analysis
T4 sequence (P15374 whole entry): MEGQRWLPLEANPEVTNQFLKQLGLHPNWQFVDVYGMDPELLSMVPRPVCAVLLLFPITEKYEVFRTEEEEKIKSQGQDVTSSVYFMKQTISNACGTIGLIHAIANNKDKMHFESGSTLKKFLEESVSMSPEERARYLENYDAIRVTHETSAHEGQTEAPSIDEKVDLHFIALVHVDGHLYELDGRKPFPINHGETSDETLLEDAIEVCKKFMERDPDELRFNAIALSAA

MM1.S [5] = test: Antitumor activity against human MM1S cells xenografted in NOD/SCID mouse assessed as tumor growth inhibition at 50 mg/kg, po administered twice daily and measured twice per week relative to control; assay type: functional; conditions: read-out: TGI
[6] = AUC in BALB/c mouse at 30 mg/kg, po; assay type: ADME, organism-based; conditions: in vivo
NCI-H526 [7] = conditions: Homo sapiens
Description: Antitumor activity against human NCI-H526 cells xenografted in athymic nu/nu mouse assessed as tumor growth inhibition at 50 mg/kg, po administered twice daily for 24 days and measured twice per week

[8] = AUC in NOD/SCID mouse at 30 mg/kg, po; assay type: ADME, organism-based; conditions: in vivo
[9] = Protein binding in mouse plasma by ultracentrifugation method; assay type: ADME, cell-free; conditions: read-out: PPB (converted)
NCI-H526 [10] = test: Cytotoxicity against human NCI-H526 cells expressing p53 mutant assessed as reduction in cell viability measured after 5 days by CellTiter-Glo assay; assay type: functional; conditions: NCI-H526, 120 h
MM1.S [11] = test: Cytotoxicity against human MM1S cells expressing wild type p53 assessed as reduction in cell viability measured after 5 days by CellTiter-Glo assay; assay type: functional; conditions: 120 h
[12] = AUC in nude mouse at 30 mg/kg, po; assay type: ADME, organism-based; conditions: in vivo
[13] = molecular target: T3, Ubiquitin carboxyl-terminal hydrolase 7; test: Inhibition of USP7 in human RKO cells transfected with p53 luciferase reporter vector assessed as increase in p53-dependent luciferase activity measured after 18 hrs by BrightGlo luciferase assay; assay type: cell-based
[14] = Cytotoxicity against human RKO cells assessed as reduction in cellular ATP level measured after 5 days by CellTiter-Glo assay; assay type: cell-based
[15] = molecular target: Voltage-gated inwardly rectifying potassium channel KCNH2 (Homo sapiens, UniProt Q12809); test: Inhibition of human ERG
Sequence of Voltage-gated inwardly rectifying potassium channel KCNH2 (Q12809 whole entry): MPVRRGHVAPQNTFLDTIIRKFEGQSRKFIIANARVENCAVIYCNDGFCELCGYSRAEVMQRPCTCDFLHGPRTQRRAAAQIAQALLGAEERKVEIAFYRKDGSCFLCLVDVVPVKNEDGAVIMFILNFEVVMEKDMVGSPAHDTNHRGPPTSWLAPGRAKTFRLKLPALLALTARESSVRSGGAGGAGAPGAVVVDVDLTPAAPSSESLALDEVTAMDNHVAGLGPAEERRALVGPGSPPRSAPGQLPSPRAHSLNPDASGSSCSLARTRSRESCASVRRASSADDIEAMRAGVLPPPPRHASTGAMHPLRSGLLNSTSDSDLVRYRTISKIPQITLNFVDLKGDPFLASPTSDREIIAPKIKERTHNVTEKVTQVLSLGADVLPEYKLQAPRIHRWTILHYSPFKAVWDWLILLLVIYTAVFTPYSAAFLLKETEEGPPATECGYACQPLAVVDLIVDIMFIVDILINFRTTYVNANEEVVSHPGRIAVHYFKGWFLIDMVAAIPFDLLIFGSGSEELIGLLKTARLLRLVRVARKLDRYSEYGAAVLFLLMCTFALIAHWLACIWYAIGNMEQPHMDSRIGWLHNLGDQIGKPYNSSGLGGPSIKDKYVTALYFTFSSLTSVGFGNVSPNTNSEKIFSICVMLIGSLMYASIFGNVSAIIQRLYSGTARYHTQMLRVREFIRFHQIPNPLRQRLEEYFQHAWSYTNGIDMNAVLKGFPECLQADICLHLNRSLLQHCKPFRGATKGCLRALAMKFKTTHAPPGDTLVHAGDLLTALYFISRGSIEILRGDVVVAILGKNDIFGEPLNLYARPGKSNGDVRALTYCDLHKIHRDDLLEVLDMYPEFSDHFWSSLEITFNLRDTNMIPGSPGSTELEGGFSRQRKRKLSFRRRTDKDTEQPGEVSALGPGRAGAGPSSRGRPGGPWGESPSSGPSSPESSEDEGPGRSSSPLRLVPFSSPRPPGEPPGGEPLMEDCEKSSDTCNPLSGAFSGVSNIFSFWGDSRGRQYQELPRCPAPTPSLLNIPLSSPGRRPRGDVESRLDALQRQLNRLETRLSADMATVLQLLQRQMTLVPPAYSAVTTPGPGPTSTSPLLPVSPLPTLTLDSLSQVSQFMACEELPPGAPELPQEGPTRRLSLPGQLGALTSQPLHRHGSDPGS

[16] = Toxicity in NOD/SCID mouse xenografted with human MM1S cells assessed as decrease in body weight at 50 mg/kg, po administered twice daily and measured twice per week relative to control; assay type: organism-based; parameters: scale not given: the % may be the effect or the level left; conditions: in vivo

SMILES | IC50 [1] | IC50 [2] | IC50 [3] | IC50 [4] | inhibition in vivo at 50 mg/kg (MM1.S [5]) | AUC [6] | TGI (NCI-H526 [7]) | AUC [8] | fraction unbound [9] | CC50 (NCI-H526 [10]) | CC50 (MM1.S [11]) | AUC [12] | EC50 [13] | CC50 at 120 h [14] | IC50 [15] | Activity [16]
Nc1cc(-c2cc(Cl)cc3c2OC(C(=O)N2CCNCC2)C3)ccn1 (racemic) | > 80 µM | > 80 µM | 5.6 µM | > 80 µM |  |  |  |  |  |  |  |  |  |  |  | 
Cc1cc(Cl)cc(-c2ccnc3cc(CN4C(=O)C5C(C4=O)C5(C)C)sc23)c1C[C@@H]1CNCCO1 (stereo not given in full) |  |  | 0.00044 µM |  | 100% | 9400 ng·h/mL | Active | 5500 ng·h/mL | 0.047 | 0.45 µM | 0.089 µM | 4600 ng·h/mL | 0.025 µM | 13 µM | 4.2 µM | < 90%
CC(Cc1ccccc1)C(=O)N1CCC(O)(Cn2cnc3ccccc3c2=O)CC1 (stereo not given) | > 80 µM | > 80 µM |  | > 80 µM |  |  |  |  |  |  |  |  |  |  |  | 
